Structures can show the parent of a compound that is named as a salt.
Columns and labels:
[1] = target: T1, human hNET (Homo sapiens, UniProt P23975); assay: Norepinephrine (NE) uptake assay in MDCK-Net6 cells; format: cell-based; conditions: [3H]NE uptake; for EC50: MDCK-Net6 cells stably transfected with hNET; for inhibition at 1 µM: MDCK-Net6 cells, read-out: hNET Percentage inhibition at 1 μM
T1 construct: expressed in transfected cells; host or cells: MDCK (MDCK-Net6)

[2] = target: T2, human 5-HT2A receptor (Homo sapiens, UniProt P28223); assay: 5-HT2A FLIPR assay (calcium response to DOI) in CHO cells; format: cell-based; conditions: for inhibition at 1 µM: CHO, read-out: 5-HT2A Percentage inhibition at 1 μM; for IC50: antagonist inhibition of 3 nM DOI stimulation, CHO cells, FLIPR
T2 construct: expressed in transfected cells; host or cells: CHO
T2 sequence (P28223 whole entry): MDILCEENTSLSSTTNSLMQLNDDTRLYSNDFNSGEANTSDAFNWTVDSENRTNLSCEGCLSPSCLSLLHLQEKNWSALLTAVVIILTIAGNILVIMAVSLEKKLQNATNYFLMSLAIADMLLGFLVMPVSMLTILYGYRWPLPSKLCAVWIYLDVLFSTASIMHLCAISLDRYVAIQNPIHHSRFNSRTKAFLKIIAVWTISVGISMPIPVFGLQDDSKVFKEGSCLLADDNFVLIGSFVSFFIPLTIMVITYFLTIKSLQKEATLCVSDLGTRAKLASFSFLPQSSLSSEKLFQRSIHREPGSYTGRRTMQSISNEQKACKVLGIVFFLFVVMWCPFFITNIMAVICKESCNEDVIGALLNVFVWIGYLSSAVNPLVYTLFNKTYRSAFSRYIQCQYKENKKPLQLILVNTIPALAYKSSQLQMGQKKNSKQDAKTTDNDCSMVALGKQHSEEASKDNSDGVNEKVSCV
Method in brief: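 CHO cells loaded with calcium dye in HBSS/20 mM HEPES; FLIPR fluorescence recorded after compound addition (10^−10–10^−5 M) for 2 min to detect agonism, then after 3 nM DOI challenge for 5 min for antagonism. Data log transformed before analysis.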

T1 sequence (P23975 whole entry): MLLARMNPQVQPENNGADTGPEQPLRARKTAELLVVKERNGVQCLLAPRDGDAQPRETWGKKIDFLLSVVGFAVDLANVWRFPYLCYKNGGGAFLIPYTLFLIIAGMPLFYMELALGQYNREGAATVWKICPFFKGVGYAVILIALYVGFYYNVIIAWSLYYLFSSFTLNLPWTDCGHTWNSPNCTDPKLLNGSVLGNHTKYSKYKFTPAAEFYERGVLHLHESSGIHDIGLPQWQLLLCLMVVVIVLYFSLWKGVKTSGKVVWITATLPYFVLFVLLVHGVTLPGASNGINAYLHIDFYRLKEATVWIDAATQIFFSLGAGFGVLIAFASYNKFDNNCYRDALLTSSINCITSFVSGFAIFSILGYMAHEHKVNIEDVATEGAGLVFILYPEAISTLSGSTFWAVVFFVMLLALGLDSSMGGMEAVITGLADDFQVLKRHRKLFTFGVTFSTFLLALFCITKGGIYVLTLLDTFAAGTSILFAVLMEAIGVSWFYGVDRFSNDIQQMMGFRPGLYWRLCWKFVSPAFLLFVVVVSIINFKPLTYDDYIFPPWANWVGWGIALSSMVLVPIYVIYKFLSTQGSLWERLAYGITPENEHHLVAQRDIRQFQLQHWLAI

Compound | EC50 [1] [nM] | inhibition at 1 µM [2] [%] | IC50 [2] [nM] | inhibition at 1 µM [1] [%]
CNC[C@@H](O)[C@H](c1ccccc1)n1ccc2cc(NC(=O)c3ccc(C)c(Cl)c3)ccc21 [Example 71, 3-chloro-N-{1-[(1S,2R)-2-hydroxy-3-(methylamino)-1-phenylpropyl]-1H-indol-5-yl}-4-methylbenzamide hydrochloride] | 92 | 44 | – | –
CNC[C@@H](O)[C@H](c1ccccc1)N1CCc2cc(NC(=O)c3cccc(Cl)c3)ccc21 [Example 72, 3-Chloro-N-{1-[(1S,2R)-2-hydroxy-3-(methylamino)-1-phenylpropyl]-2,3-dihydro-1H-indol-5-yl}benzamide hydrochloride] | 95 | 60 | – | –
CNC[C@@H](O)[C@H](c1ccccc1)n1ccc2cc(NC(=O)c3cccc(Cl)c3)ccc21 [Example 73, 3-Chloro-N-{1-[(1S,2R)-2-hydroxy-3-(methylamino)-1-phenylpropyl]-1H-indol-5-yl}benzamide hydrochloride] | 91 | – | 625 | –
CNC[C@@H](O)[C@H](c1ccccc1)N1CCc2cc(NC(=O)c3ccccc3)ccc21 [Example 74, N-{1-[(1S,2R)-2-Hydroxy-3-(methylamino)-1-phenylpropyl]-2,3-dihydro-1H-indol-5-yl}benzamide hydrochloride] | 365 | 24 | – | –
CNC[C@@H](O)[C@H](c1ccccc1)n1ccc2cc(NC(=O)c3ccccc3)ccc21 [Example 75, N-{1-[(1S,2R)-2-Hydroxy-3-(methylamino)-1-phenylpropyl]-1H-indol-5-yl}benzamide hydrochloride] | 299 | 34 | – | –
CNC[C@@H](O)[C@H](c1ccccc1)N1CCc2cc(NC(=O)C3CCCCC3)ccc21 [Example 76, N-{1-[(1S,2R)-2-Hydroxy-3-(methylamino)-1-phenylpropyl]-2,3-dihydro-1H-indol-5-yl}cyclohexanecarboxamide hydrochloride] | – | 45 | – | 54
CNC[C@@H](O)[C@H](c1ccccc1)n1ccc2cc(NC(=O)C3CCCCC3)ccc21 [Example 77, N-{1-[(1S,2R)-2-Hydroxy-3-(methylamino)-1-phenylpropyl]-1H-indol-5-yl}cyclohexanecarboxamide hydrochloride] | – | 51 | – | 60
CNC[C@@H](O)[C@H](c1ccccc1)N1CCc2cc(C(=O)Nc3cccc(Cl)c3)ccc21 [Example 78, N-(3-Chlorophenyl)-1-[(1S,2R)-2-hydroxy-3-(methylamino)-1-phenylpropyl]indoline-5-carboxamide hydrochloride] | 362 | – | 691 | –
CNC[C@@H](O)[C@H](c1ccccc1)n1ccc2cc(C(=O)Nc3cccc(Cl)c3)ccc21 [Example 79, N-(3-Chlorophenyl)-1-[(1S,2R)-2-hydroxy-3-(methylamino)-1-phenylpropyl]-1H-indole-5-carboxamide hydrochloride] | 328 | – | 84 | –
CNC[C@@H](O)[C@H](c1ccccc1)n1ccc2ccc(Oc3ccccc3)cc21 [Example 80, (1S,2R)-3-(methylamino)-1-(6-phenoxy-1H-indol-1-yl)-1-phenylpropan-2-ol hydrochloride] | – | 32 | – | 12
CNC[C@@H](O)[C@H](c1ccccc1)n1ccc2cccc(Oc3ccccc3)c21 [Example 81, (1S,2R)-3-(methylamino)-1-(7-phenoxy-1H-indol-1-yl)-1-phenylpropan-2-ol hydrochloride] | 1020 | – | 372 | –
NC[C@@H](O)[C@H](c1ccccc1)n1ccc2cc(OCc3ccccc3)ccc21 [Example 82, (1S,2R)-3-amino-1-[5-(benzyloxy)-1H-indol-1H-yl]-1-phenylpropan-2-ol hydrochloride] | 279 | – | 796 | –
CCNC[C@@H](O)[C@H](c1ccccc1)n1ccc2cc(OCc3ccccc3)ccc21 [Example 83, (1S,2R)-1-[5-(benzyloxy)-1H-indol-1-yl]-3-(ethylamino)-1-phenylpropan-2-ol hydrochloride] | – | – | 380 | 43
CCCNC[C@@H](O)[C@H](c1ccccc1)n1ccc2cc(OCc3ccccc3)ccc21 [Example 84, (1S,2R)-1-[5-(benzyloxy)-1H-indol-1-yl]-1-phenyl-3-(propylamino)propan-2-ol hydrochloride] | – | 50 | – | 11
CC(C)NC[C@@H](O)[C@H](c1ccccc1)n1ccc2cc(OCc3ccccc3)ccc21 [Example 85, (1S,2R)-1-[5-(benzyloxy)-1H-indol-1-yl]-3-(isopropylamino)-1-phenylpropan-2-ol hydrochloride] | – | 32 | – | 4
CN(C)C[C@@H](O)[C@H](c1ccccc1)n1ccc2cc(OCc3ccccc3)ccc21 [Example 86, (1S,2R)-1-[5-(benzyloxy)-1H-indol-1-yl]-3-(dimethylamino)-1-phenylpropan-2-ol hydrochloride] | – | – | 263 | 22
CCN(C)C[C@@H](O)[C@H](c1ccccc1)n1ccc2cc(OCc3ccccc3)ccc21 [Example 87, (1S,2R)-1-[5-(benzyloxy)-1H-indol-1-yl]-3-[ethyl(methyl)amino]-1-phenylpropan-2-ol hydrochloride] | – | – | 1120 | 16
CCN(CC)C[C@@H](O)[C@H](c1ccccc1)n1ccc2cc(OCc3ccccc3)ccc21 [Example 88, (1S,2R)-1-[5-(benzyloxy)-1H-indol-1-yl]-3-(diethylamino)-1-phenylpropan-2-ol hydrochloride] | – | 33 | – | 21
O[C@H](CN1CCCC1)[C@H](c1ccccc1)n1ccc2cc(OCc3ccccc3)ccc21 [Example 89, (1S,2R)-1-[5-(benzyloxy)-1H-indol-1-yl]-1-phenyl-3-pyrrolidin-1-ylpropan-2-ol hydrochloride] | – | 32 | – | 14
O[C@H](CN1CCCCC1)[C@H](c1ccccc1)n1ccc2cc(OCc3ccccc3)ccc21 [Example 90, (1S,2R)-1-[5-(benzyloxy)-1H-indol-1-yl]-1-phenyl-3-piperidin-1-ylpropan-2-ol hydrochloride] | – | 25 | – | 12
CN1CCN(C[C@@H](O)[C@H](c2ccccc2)n2ccc3cc(OCc4ccccc4)ccc32)CC1 [Example 91, (1S,2R)-1-[5-(benzyloxy)-1H-indol-1-yl]-3-(4-methylpiperazin-1-yl)-1-phenylpropan-2-ol hydrochloride] | – | 29 | – | 22
CNC[C@@H](O)[C@H](c1ccccc1)n1ccc2cc(C#Cc3ccccc3)ccc21 [Example 93, (1S,2R)-3-(methylamino)-1-phenyl-1-[5-(phenylethynyl)-1H-indol-1-yl]propan-2-ol hydrochloride] | 287 | 36 | – | –
CNC[C@@H](O)[C@H](c1ccccc1)n1ccc2cc(CCc3ccccc3)ccc21 [Example 94, (1S,2R)-3-(methylamino)-1-phenyl-1-[5-(2-phenylethyl)-1H-indol-1-yl]propan-2-ol hydrochloride] | 86 | – | 636 | –
NC[C@@H](O)[C@H](c1ccccc1)N1C(=O)C2(CCCCC2)c2ccc(F)cc21 [Example 95, 1′-[(1S,2R)-3-amino-2-hydroxy-1-phenylpropyl]-6′-fluorospiro[cyclohexane-1,3′-indol]-2′(1′H)-one hydrochloride] | – | 44 | – | 7
